In patent US5919761A, “Peptides for heparin and low molecular weight heparin anticoagulation reversal” (The Board of Regents of the University of Michigan, priority 1995, dated 1999):
Where “and” joins values, the source holds several entries; their conditions need not be identical. Identical values can stand only once. Peptide text beside a SMILES is read from it.

Columns and labels:
[1] = system: standard, unfractionated heparin; experiment: Percent reversal of standard heparin anticoagulation by variant peptides and protamine, in vivo canine study, coagulation tests; parameters: species or system dogs; settings: for Percent reversal of heparin anticoagulation, ACT: heparin 150 IU/kg IV, agent 1.5 mg/kg IV over 10 seconds
Description: Data are expressed as a mean ±1 SD. Statistical analysis using linear regression for determination of correlation coefficients, and analysis of variance (ANOVA) or unpaired two-way Student's t-test; p<0.05 was accepted as statistically significant.
Anticoagulation reversal was assessed by a number of standard coagulation tests performed upon samples of venous blood: activated clotting time (ACT), prothrombin time (PT), activated partial thromboplastin time (aPTT), thrombin clotting time (TCT), heparin concentration by assay for FXa inhibitory activity (FXa), white cell count (WBC), and platelet counts (PLT). Measurements were made 3 minutes prior to heparin reversal (baseline) and 3 minutes and 30 minutes post-administration of the heparin reversal agent. The "Heparin" row sets forth the observed reversal as a consequence of expected heparin metabolism or degradation alone.

[2] = Hemodynamic studies and total toxicity score after standard heparin reversal, canine study; settings: dogs
Description: As used hereinafter, the peptides will be identified by their total cationic charge value, e.g., [+8], [+16], etc.
Hemodynamic studies were conducted by measuring mean arterial pressure (MAP), heart rate (HR), and maximum percent changes in cardiac output (CO) and systemic oxygen consumption (VO2).
Total toxicity scores (TTS) were developed that reflected maximum declines in each of four parameters (MAP, CO, VO2 and HR) over the first 5 minutes after reversal, the latter being the time of expected greatest adverse hemodynamic effect. The maximum changes occurring in an individual dog over the first 5 minutes were divided by the standard deviation derived from the entire group of tested animals and the four scores were added, resulting in a TTS for each individual dog. The TTS values for each dog were then summed to obtain an average TTS and SD for each peptide studied.

[3] = system: standard, unfractionated heparin; experiment: Factor Xa and IIa reversal after standard heparin, cell adhesion ligand analogs, canine study; type: in vivo; settings: dogs, 3 min post administration
Description: Anticoagulation reversal was assessed by a number of standard coagulation tests performed upon samples of venous blood in the manner described hereinabove. Measurements were made 3 minutes prior to heparin reversal (baseline) and 3 minutes, 10 minutes, and 30 minutes post-administration of the heparin reversal agent. […] Referring to FIGS. 4a through 4d, compound [+18RGD] performs as well, or better, than n-protamine in the standard coagulation tests performed in these studies.

[4] = Percent change in platelet count after standard heparin reversal, cell adhesion ligand analogs, canine study; type: in vivo; settings: dogs, agent over 10 seconds
Description: In addition to hemodynamic changes, Table 15 lists the percent change in platelet count following administration of n-protamine and the selected variants, as well as the factor Xa and factor IIa reversal, as a percent change at 3 minutes post administration of the compound.

LMWH (Enoxaparin) = experiment: Factor Xa and IIa reversal after LMWH Enoxaparin, canine study; type: in vivo; settings: dogs, 3 min
Description: Similar studies were conducted to assess the ability of the protamine-like peptide analogs described in this section to reverse the anticoagulation effects of the LMWH, Enoxaparin. FIG. 5a through FIG. 5d are graphical representations of LMWH anticoagulation activities achieved by n-protamine (Protamine [+21]), and compounds [+18BE], [+18KDEL], and [+18RGD] plotted as a percent of reversal against time in minutes. […] Referring to FIG. 5c, compound [+18RGD] dramatically outperforms n-protamine in reversing the heparin antifactor Xa activity of Enoxaparin.

[5] = Percent change in platelet count after Enoxaparin reversal, canine study; type: in vivo; settings: dogs, agent over 10 seconds
Description: (§1) Seven female dogs (mean weight 15-20 kg) received intravenous standard, unfractionated heparin (150 IU/kg IV) or LMWH (Enoxaparin, Rhone-Poulac, France; 100 IU/kg factor Xa activity) followed by reversal with commercial salmine protamine (n-protamine purchased from Eli Lilly, Indianapolis, Ind., 1.5 mg/kg (100 IU/mg) IV) or an anticoagulation-reversing agent which is a protamine-like peptide variant identified hereinbelow. In these studies, the anticoagulation-reversing agents were administered over a 10 second interval to maximize the hemodynamic effects.

[6] = Maximum hemodynamic changes and total toxicity score after Enoxaparin reversal, canine study; settings: dogs, agent over 10 seconds; for Maximum hemodynamic change, Mean BP: Enoxaparin 100 IU/kg; for Maximum hemodynamic change, Mean BP / Maximum hemodynamic change, CO / Maximum hemodynamic change, HR / Maximum hemodynamic change, VO2: 5 minutes; for Total Toxicity Score (TTS) / Maximum hemodynamic change, CO / Maximum hemodynamic change, HR / Maximum hemodynamic change, VO2: Enoxaparin
Description: as §1

[7] = Maximum hemodynamic changes and total toxicity score after standard heparin reversal, cell adhesion ligand analogs, canine study; settings: dogs, agent over 10 seconds; for Maximum hemodynamic change, Mean BP: standard heparin 150 IU/kg IV; for Maximum hemodynamic change, Mean BP / Maximum hemodynamic change, CO / Maximum hemodynamic change, HR / Maximum hemodynamic change, VO2: 5 minutes; for Maximum hemodynamic change, CO / Maximum hemodynamic change, HR / Maximum hemodynamic change, VO2: standard heparin; for Total Toxicity Score: standard unfractionated heparin
Description: In these studies, the anticoagulation-reversing agents were administered over a 10 second interval to maximize the hemodynamic effects.
Hemodynamic studies were conducted by measuring mean blood pressure (Mean BP) in mm Mercury, maximum percent changes in cardiac output (CO) and systemic oxygen consumption (VO2), and heart rate (HR) in beats per minute. Measurements and calculations were made at baseline, before administration of standard, unfractionated heparin, 3 minutes before reversal, every 30 seconds for 5 minutes after reversal.
Total toxicity scores (TTS) were developed in accordance with the method described hereinabove that reflected maximum declines in each of four parameters (MAP, CO, VO2 and HR) over the first 5 minutes after reversal.

Row | Compound | IIa Reversal [3] [%] | Xa Reversal [3] [%] | Platelet (percent change in platelet count) [4] [%] | IIa Reversal (LMWH (Enoxaparin)) [%] | Xa Reversal (LMWH (Enoxaparin)) [%] | Platelet (percent change in platelet count) [5] [%] | Maximum hemodynamic change, Mean BP [6] [mm Mercury] | Total Toxicity Score (TTS) [6] | Maximum hemodynamic change, CO [6] [%] | Maximum hemodynamic change, HR [6] [beats/min] | Maximum hemodynamic change, VO2 [6] [%] | Maximum hemodynamic change, Mean BP [7] [mm Mercury] | Maximum hemodynamic change, CO [7] [%] | Maximum hemodynamic change, HR [7] [beats/min] | Maximum hemodynamic change, VO2 [7] [%] | Total Toxicity Score [7] | further results
1 | P(K2 O2 G4)3 K2 O2 [[+8]] | – | – | – | – | – | – | – | – | – | – | – | – | – | – | – | – | in vivo heparin reversal (summary) ([1]; dogs, standard heparin): not capable of effect heparin reversal; Percent reversal of heparin anticoagulation, ACT ([1]; dogs, 3 min post-administration): 7%; Percent reversal of heparin anticoagulation, ACT ([1]; dogs, 30 min): 37%; Percent reversal of heparin anticoagulation, APTT ([1]; same study, 3 min): 0%; Percent reversal of heparin anticoagulation, FNa ([1]; same study, 3 min): 8%; Percent reversal of heparin anticoagulation, FXa ([1]; same study, 3 min): -1%; Percent reversal of heparin anticoagulation, PT ([1]; same study, 3 min): 21%; Percent reversal of heparin anticoagulation, TCT ([1]; same study, 3 min): 0%; Percent reversal of heparin anticoagulation, APTT ([1]; same study, 30 min): 50%; Percent reversal of heparin anticoagulation, FXa ([1]; same study, 30 min): 9%; Percent reversal of heparin anticoagulation, PT ([1]; same study, 30 min): 50%; Percent reversal of heparin anticoagulation, TCT ([1]; same study, 30 min): 0%; ΔHR [2]: -9; ΔMAP ([2]; average maximum decline in first five minutes after peptide administration): -1; average total toxicity score (TTS±SD) ([2]; first 5 minutes after reversal, more negative = more toxic): -1.9±1.1; ΔCO ([2]; maximum percent change): -8%; ΔVO2 ([2]; maximum percent change): -8%
2 | CC(=O)N[C@@H](CCC(=O)O)C(=O)N[C@@H](C)C(=O)N[C@@H](CCCNC(=N)N)C(=O)N[C@@H](CCCNC(=N)N)C(=O)N[C@@H](C)C(=O)N[C@@H](C)C(=O)N[C@@H](CCCNC(=N)N)C(=O)N[C@@H](CCCNC(=N)N)C(=O)N[C@@H](C)C(=O)N[C@@H](CCCNC(=N)N)C(=O)N[C@@H](CCCNC(=N)N)C(=O)N[C@@H](C)C(=O)N[C@@H](C)C(=O)N[C@@H](CCCNC(=N)N)C(=O)N[C@@H](CCCNC(=N)N)C(=O)N[C@@H](C)C(=O)N[C@@H](CCCNC(=N)N)C(=O)N[C@@H](CCCNC(=N)N)C(=O)N[C@@H](C)C(=O)N[C@@H](C)C(=O)N[C@@H](CCCNC(=N)N)C(=O)N[C@@H](CCCNC(=N)N)C(=O)N[C@@H](C)C(=O)N[C@@H](CCCNC(=N)N)C(=O)N[C@@H](CCCNC(=N)N)C(=O)N[C@@H](C)C(=O)N[C@@H](C)C(=O)N[C@@H](CCCNC(=N)N)C(=O)N[C@@H](CCCNC(=N)N)C(=O)N[C@@H](C)C(=O)N[C@@H](CCCNC(=N)N)C(=O)N[C@@H](CCCNC(=N)N)C(=O)NCC(=O)N[C@@H](CCCNC(=N)N)C(=O)NCC(=O)N[C@@H](CC(=O)O)C(=O)N[C@@H](CO)C(=O)N1CCC[C@H]1C(=O)N[C@@H](C)C(N)=O [[+18RGD], acetyl-EA--(R2 A2 R2 A)4 R2 GRGDSPA-amide] (Ac-EARRAARRARRAARRARRAARRARRAARRARRGRGDSPA-NH2) | 100 | 100 | -27 | 100 | 72 | -31 | -1 | -2.68 and -2.68 ± 0.88 | -3 | -3 | -7 | -2 | -3 | -3 | -4 | -1.43 ± 0.61 | –
3 | CC(=O)N[C@@H](CCC(=O)O)C(=O)N[C@@H](C)C(=O)N[C@@H](CCCNC(=N)N)C(=O)N[C@@H](CCCNC(=N)N)C(=O)N[C@@H](C)C(=O)N[C@@H](C)C(=O)N[C@@H](CCCNC(=N)N)C(=O)N[C@@H](CCCNC(=N)N)C(=O)N[C@@H](C)C(=O)N[C@@H](CCCNC(=N)N)C(=O)N[C@@H](CCCNC(=N)N)C(=O)N[C@@H](C)C(=O)N[C@@H](C)C(=O)N[C@@H](CCCNC(=N)N)C(=O)N[C@@H](CCCNC(=N)N)C(=O)N[C@@H](C)C(=O)N[C@@H](CCCNC(=N)N)C(=O)N[C@@H](CCCNC(=N)N)C(=O)N[C@@H](C)C(=O)N[C@@H](C)C(=O)N[C@@H](CCCNC(=N)N)C(=O)N[C@@H](CCCNC(=N)N)C(=O)N[C@@H](C)C(=O)N[C@@H](CCCNC(=N)N)C(=O)N[C@@H](CCCNC(=N)N)C(=O)N[C@@H](C)C(=O)N[C@@H](C)C(=O)N[C@@H](CCCNC(=N)N)C(=O)N[C@@H](CCCNC(=N)N)C(=O)N[C@@H](C)C(=O)N[C@@H](CCCNC(=N)N)C(=O)N[C@@H](CCCNC(=N)N)C(=O)NCC(=O)N[C@H](C(=O)N[C@@H](CCCCN)C(=O)N[C@@H](CC(=O)O)C(=O)N[C@@H](CCC(=O)O)C(=O)N[C@@H](CC(C)C)C(=O)O)C(C)C [[+18KDEL], acetyl-EA(R2 A2 R2 A)4 R2 GVKDEL] (Ac-EARRAARRARRAARRARRAARRARRAARRARRGVKDEL-OH) | 94 | 97 | -24 | 98 | 48 | -40 | -6 | -5.00 and -5.0 ± 3.44 | -14 | -11 | -10 | -5 | -12 | -14 | -6 | -3.53 ± 1.65 | –
